The values that follow come from US6774143B1, “Method for treating cells resistant to antineoplastic agents” (Novartis AG, priority 2003, dated 2004).

For one assay, the system named is 1A9 cells. Briefly: In vitro cytotoxicity assay (MTT). The settings on record: Homo sapiens, 1A9, 1A9 cells; cytotoxic control; experiment not specified; read-out: IC50. The assay is classed as cell-based. The method, then: (§1) 1A9 and 1A9PTX22 cells are plated in 96-well plates at 5×10^4 cells/well, plced in a tissue culture incubator and allowed to attach overnight. The next morning, the number of viable cells in the “time 0” plate (3 wells for each cell line) is determined using an MTT assay (Alley M C, et al., Cancer Res. 1988, 48:589-601).
(§2) At the same time drugs are added in serial, 10-fold dilutions, to the experimental plates. Corresponding vehicles are added to control plates. Experimental and control plates are then incubated in the tissue culture incubator for 72 hours. After the incubation the number of viable cells is determined in each plate using the MTT assay. IC50s (defined as a concentration of a given compound causing 50% inhibition of cell growth) are determined by comparing cell growth in the drug-treated plate (T−T0) to the cell growth in the corresponding control plate (C−T0). For each experiment results are calculated using average numbers from two sets of plates.
(§3) Discodermolide is isolated from the sponge Discodermia dissoluta using the method of Gunasekera SP (supra). Multiple batches of compound of similar purity (all>95% pure, as determined by mass spectrometry, and nuclear magnetic resonance analysis) are used throughout the various studies. For the in vitro cytotoxicity assays all compounds are dissolved in DMSO and are added to the plates with cells to obtain desired concentrations. […] Paclitaxel is purchased from Sigma/Aldrich, (St. Louis, Mo.). For the in vivo hollow fiber assay, solid discodermolide is dissolved in pure ethanol to create a stock solution which is diluted just before dosing with Cremophor EL and D5W to a final concentration of 16.7% Cremophor EL, 8.3% ethanol and 75% D5W. The compound is administered to mice as a single, 15 mg/kg iv injection. Positive control animals receive clinical formulations of paclitaxel (TAXOL) diluted 4-fold with D5W (12.5% Cremophor El, 12.5% ethanol and 75% D5W final concentrations) and administered iv, at 15 mg/kg, once daily for five consecutive days. Vehicle controls are administered according to the corresponding drug schedules.

The test system of assay [1] is 1A9PTX22 cells (β-tubulin mutation). In words: In vitro cytotoxicity assay (MTT). It counts as cell-based, human. The method, then:
as §1, §2, §3

Converted amounts (≈) assume the structure as drawn.

For the molecule `COc1cccc2c1C(=O)c1c(O)c3c(c(O)c1C2=O)C[C@@](O)(C(=O)CO)C[C@@H]3O[C@H]1C[C@H](N)[C@H](O)[C@H](C)O1` [Doxorubicin], the IC50 in the assay with 1A9 cells is 3 ng/mL (≈ 5.52 nM); in assay [1] (Homo sapiens, 1A9/ptx-22, 1A9PTX22 cells, cytotoxic control, experiment not specified, read-out: IC50), 3 to 5 ng/mL (≈ 5.52 to 9.2 nM). Also, in assay [1] (from IC50s of the two in vitro experiments), the “fold resistance of 1A9PTX22 versus parental 1A9” value came out at 2 fold.

The IC50 is the concentration at which inhibition is half-maximal.
